From patent US20260165323A1, “USE OF STROBILURIN TYPE COMPOUNDS FOR COMBATING PHYTOPATHOGENIC FUNGI CONTAINING AN AMINO ACID SUBSTITUTION F129L IN THE MITOCHONDRIAL CYTOCHROME B PROTEIN CONFERRING RESISTANCE TO QO […]” (priority 2022, published 2026)

Key:
[1] = test system: Phakopsora pachyrhizi containing the amino acid substitution F129L in the mitochondrial cytochrome b protein; assay: Use Example 1: protective control of soybean rust on soybeans (PHAKPA P2); type: in vivo; conditions: inoculated 2 days after spraying, % diseased leaf area
Protocol: (§1) The compound was dissolved in a mixture of acetone and/or dimethylsulfoxide and the wetting agent/emulsifier Wettol, which is based on ethoxylated alkylphenoles, in a ratio (volume) solvent-emulsifier of 99 to 1 to give a total volume of 5 ml. Subsequently, water was added to total volume of 100 ml. This stock solution was then diluted with the described solvent-emulsifier-water mixture to the final concentration given in the tables below.
Use Example 1. Protective Control of Soybean Rust on Soybeans Caused by Phakopsora pachyrhizi (PHAKPA P2)
(§2) Leaves of potted soybean seedlings were sprayed to run-off with the previously described spray solution, containing the concentration of active ingredient or their mixture as described below. The plants were allowed to air-dry. The trial plants were cultivated for 2 days in a greenhouse chamber at 23-27° C. and a relative humidity between 60 and 80%. Then the plants were inoculated with spores of Phakopsora pachyrhizi. The strain used contains the amino acid substitution F129L in the mitochondrial cytochrome b protein conferring resistance to Qo inhibitors. To ensure the success the artificial inoculation, the plants were transferred to a humid chamber with a relative humidity of about 95% and 20 to 24° C. for 24 hr. The trial plants were cultivated for up to 14 days in a greenhouse chamber at 23 to 27° C. and a relative humidity between 60 and 80%. The extent of fungal attack on the leaves was visually assessed as % diseased leaf area, the disease level of untreated controls was usually higher than 85%.

[2] = test system: Phakopsora pachyrhizi containing the amino acid substitution F129L in the mitochondrial cytochrome b protein; assay: Use Example 2: protective control of soybean rust on soybeans (PHAKPA P6); type: in vivo; conditions: inoculated six days after spraying, % diseased leaf area
Protocol: as §1
Use Example 2. Protective Control of Soybean Rust on Soybeans Caused by Phakopsora Pachyrhizi (PHAKPA P6)
as §2, with “active ingredient as described” for “active ingredient or their mixture as described”, “cultivated for six days in” for “cultivated for 2 days in”, “95% and 23 to 27°” for “95% and 20 to 24°”, “23 to 27° C. for” for “20 to 24° C. for”

CO/C=C(/C(=O)OC)c1cccc(Cl)c1CO/N=C(\COC)c1ccc(Cl)cc1Cl [compound 81]
% PHAKPA (F129L) Disease level P2 at 4 ppm [1]: 63% | % PHAKPA (F129L) Disease level P2 at 16 ppm [1]: 21% | % PHAKPA (F129L) Disease level P6 at 4 ppm [2]: 35% | % PHAKPA (F129L) Disease level P6 at 16 ppm [2]: 20%

CNC(=O)/C(=N/OC)c1cccc(Cl)c1CO/N=C(\COC)c1ccc(Cl)cc1Cl [compound 85]
% PHAKPA (F129L) Disease level P2 at 4 ppm [1]: 42% | % PHAKPA (F129L) Disease level P2 at 16 ppm [1]: 37% | % PHAKPA (F129L) Disease level P6 at 4 ppm [2]: 65% | % PHAKPA (F129L) Disease level P6 at 16 ppm [2]: 25%

COC/C(=N\OCc1c(Cl)cccc1/C(=N\OC)C(=O)OC)c1ccc(Cl)cc1F [compound 104]
% PHAKPA (F129L) Disease level P2 at 4 ppm [1]: 42% | % PHAKPA (F129L) Disease level P2 at 16 ppm [1]: 7% | % PHAKPA (F129L) Disease level P6 at 4 ppm [2]: 27% | % PHAKPA (F129L) Disease level P6 at 16 ppm [2]: 9%

CO/C=C(/C(=O)OC)c1cccc(Cl)c1CO/N=C(\COC1CC1)c1ccccc1 [compound 61]
% PHAKPA (F129L) Disease level P2 at 4 ppm [1]: 11% | % PHAKPA (F129L) Disease level P2 at 16 ppm [1]: 0% | % PHAKPA (F129L) Disease level P6 at 4 ppm [2]: 16% | % PHAKPA (F129L) Disease level P6 at 16 ppm [2]: 2%

CO/C=C(/C(=O)OC)c1cccc(Br)c1CO/N=C(\COC1CC1)c1ccc(F)cc1 [compound 65]
% PHAKPA (F129L) Disease level P2 at 4 ppm [1]: 15% | % PHAKPA (F129L) Disease level P2 at 16 ppm [1]: 1% | % PHAKPA (F129L) Disease level P6 at 4 ppm [2]: 23% | % PHAKPA (F129L) Disease level P6 at 16 ppm [2]: 2%

CO/C=C(/C(=O)OC)c1cccc(Cl)c1CO/N=C(/COC)c1ccc(F)cn1 [compound 132, methyl (E)-2-[3-chloro-2-[[(E)-[1-(5-fluoro-2-pyridyl)-2-methoxy-ethylidene]amino]oxymethyl]phenyl]-3-methoxy-prop-2-enoate]
% PHAKPA (F129L) Disease level P2 at 16 ppm [1]: 33% | % PHAKPA (F129L) Disease level P6 at 16 ppm [2]: 15%

CO/C=C(/C(=O)OC)c1cccc(Cl)c1CO/N=C(\COC1CC1)c1ccc(F)cc1 [compound 60]
% PHAKPA (F129L) Disease level P2 at 4 ppm [1]: 21% | % PHAKPA (F129L) Disease level P2 at 16 ppm [1]: 2% | % PHAKPA (F129L) Disease level P6 at 4 ppm [2]: 21% | % PHAKPA (F129L) Disease level P6 at 16 ppm [2]: 6%

CNC(=O)/C(=N/OC)c1cccc(Cl)c1CO/N=C(\COC1CC1)c1ccc(F)cc1 [compound 64]
% PHAKPA (F129L) Disease level P2 at 4 ppm [1]: 37% | % PHAKPA (F129L) Disease level P2 at 16 ppm [1]: 7% | % PHAKPA (F129L) Disease level P6 at 4 ppm [2]: 45% | % PHAKPA (F129L) Disease level P6 at 16 ppm [2]: 7%

COC/C(=N\OCc1c(Cl)cccc1/C(=N\OC)C(=O)OC)c1cc(Cl)ccc1F [compound 103]
% PHAKPA (F129L) Disease level P2 at 4 ppm [1]: 72% | % PHAKPA (F129L) Disease level P2 at 16 ppm [1]: 18% | % PHAKPA (F129L) Disease level P6 at 4 ppm [2]: 72% | % PHAKPA (F129L) Disease level P6 at 16 ppm [2]: 18%

COC/C(=N\OCc1c(Cl)cccc1/C(=N\OC)C(=O)OC)c1cccc(C)c1 [compound 126]
% PHAKPA (F129L) Disease level P2 at 4 ppm [1]: 71% | % PHAKPA (F129L) Disease level P2 at 16 ppm [1]: 14% | % PHAKPA (F129L) Disease level P6 at 4 ppm [2]: 73% | % PHAKPA (F129L) Disease level P6 at 16 ppm [2]: 34%

CNC(=O)/C(=N/OC)c1cccc(Cl)c1CO/N=C(\COC)c1cccc(F)c1F [compound 91]
% PHAKPA (F129L) Disease level P2 at 4 ppm [1]: 13% | % PHAKPA (F129L) Disease level P2 at 16 ppm [1]: 15% | % PHAKPA (F129L) Disease level P6 at 4 ppm [2]: 17% | % PHAKPA (F129L) Disease level P6 at 16 ppm [2]: 18%

CNC(=O)/C(=N/OC)c1cccc(Cl)c1CO/N=C(\COC)c1ccc(F)c(F)c1F [compound 108]
% PHAKPA (F129L) Disease level P2 at 4 ppm [1]: 21% | % PHAKPA (F129L) Disease level P2 at 16 ppm [1]: 4% | % PHAKPA (F129L) Disease level P6 at 4 ppm [2]: 19% | % PHAKPA (F129L) Disease level P6 at 16 ppm [2]: 7%

COC/C(=N\OCc1c(Cl)cccc1/C(=N\OC)C(=O)OC)c1ccc(Cl)c(F)c1 [compound 114]
% PHAKPA (F129L) Disease level P2 at 4 ppm [1]: 35% | % PHAKPA (F129L) Disease level P2 at 16 ppm [1]: 10% | % PHAKPA (F129L) Disease level P6 at 4 ppm [2]: 82% | % PHAKPA (F129L) Disease level P6 at 16 ppm [2]: 30%

CO/C=C(/C(=O)OC)c1cccc(Cl)c1CO/N=C(\COC)c1ccccc1Cl [compound 15, Methyl-(E)-2-[3-chloro-2-[[(Z)-[1-(2-chlorophenyl)-2-methoxy-ethylidene]amino]oxymethyl]phenyl]-3-methoxy-prop-2-enoate]
% PHAKPA (F129L) Disease level P2 at 4 ppm [1]: 30% | % PHAKPA (F129L) Disease level P2 at 16 ppm [1]: 4% | % PHAKPA (F129L) Disease level P6 at 4 ppm [2]: 40% | % PHAKPA (F129L) Disease level P6 at 16 ppm [2]: 7%
